US20070270418A1, “Inhibitors of P38 and Methods of Using the Same” (priority 2003, published 2007)

Target: T1, p38α (Homo sapiens, UniProt Q16539)
T1 construct: p38 MAP Kinases are recombinant human full-length proteins with an amino-terminal GST fusion; GST (N); purchased Upstate (Charlottesville, Va.); host or cells: E. coli
Test: p38 MAP Kinase assay, ATF2 phosphorylation (ELISA)
Assay type: biochemical
Conditions: 40 μM ATP
Description: Compounds of the invention are screened for the ability to inhibit ATF2 phosphorylation by p38 MAP Kinase in vitro. The ability of compounds to inhibit ATF2 phosphorylation in this in vitro assay is correlated with the inhibition of p38 MAP Kinase and TNFα expression in vivo, and is therefore an indicator of potential in vivo therapeutic activity (Raingeaud, J., et al, J. Biol. Chem., 270: 7420-7426, 1995, Brinkman, M. N., et al, J. Bil. Chem. 274: 30882-30886, 1999 and Fuchs, S. Y. et al, J. Biol. Chem. 275: 12560-12564, 2000).
All kinases and the substrate ATF2 are acquired from Upstate (Charlottesville, Va.). p38 MAP Kinases are recombinant human full-length proteins with an amino-terminal GST fusion, expressed in and purified from E. coli. ATF2 is a GST fusion protein containing amino acids 19-96 of human ATF2 expressed in E. coli. All proteins were aliquoted and stored at −80° C.
p38 MAP Kinase assays are performed using an assay buffer containing 25 mM HEPES, pH 7.5, 10 mM MgCl2, 2 mM DTT, 20 mM β-glycerophosphate, 0.1 mM Na3VO4, 40 μM ATP and 1.25 μM of ATF2, together with 6 ng of p38α protein, 12 ng p38β protein, 1.5 ng p38γ, or 0.4 ng JNK2α2. Compounds are serially diluted in DMSO and 2 μL of test compound at 25× final concentration is used. The vehicle control receives DMSO only. Test compounds are pre-incubated with 20 μl of enzyme in kinase buffer (25 mM HEPES, pH 7.5, 10 mM MgCl2, 2 mM DTT, 20 mM 3-glycerophosphate and 0.1 mM Na3VO4) at room temperature for 15 minutes. […] The reactions are incubated for 30 minutes at 37° C. and terminated by the addition of 18 μl of 200 mM EDTA. An ELISA method is used to measure the phosphorylation of ATF2 at Thr 69. High binding 96-well plates (Corning 3369) are coated with 50 μl of kinase reaction for 1 hour at 37° C. The coated plates are washed with 200 μl washing buffer (25 mM Tris HCl, pH 8.3, 192 mM glycine, 0.1% SDS and 0.05% Tween-20) three times. The plates are then washed three times with SuperBlock in TBS (Pierce, 37535). After blocking, plates are incubated with 50 μl of rabbit anti-phospho-ATF2 antibody (Cell Signaling, 9221 L, 1:500) for 30 minutes at 37° C. Plates are washed three times with washing buffer prior to incubation with 50 μl HRP-conjugated goat anti-rabbit antibody (Cell Signaling, 7074, 1:500) for 30 minutes at 37° C. Plates are then washed three times with washing buffer before incubation with 50 μl of Ultra TMB-ELISA (Pierce, 34028) for 8 minutes at room temperature. Finally, 50 μl of phosphoric acid (1 M) is added to stop reactions and plate absorbance is read at 450 nm on a SpectraMax 250 plate reader.

T1 sequence (Q16539 whole entry, the tested form may be a part): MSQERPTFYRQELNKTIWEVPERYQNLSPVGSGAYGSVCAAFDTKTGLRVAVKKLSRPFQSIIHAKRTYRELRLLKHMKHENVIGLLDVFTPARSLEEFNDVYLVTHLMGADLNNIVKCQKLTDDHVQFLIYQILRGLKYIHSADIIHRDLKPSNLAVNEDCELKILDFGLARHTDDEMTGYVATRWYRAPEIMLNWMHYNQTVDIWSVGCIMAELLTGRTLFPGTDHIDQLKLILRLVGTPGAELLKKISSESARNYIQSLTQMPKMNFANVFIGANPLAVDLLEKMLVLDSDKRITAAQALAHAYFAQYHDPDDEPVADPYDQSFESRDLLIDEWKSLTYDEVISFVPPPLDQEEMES

IC50 | SMILES
1410 nM | CC(C)[C@@H](CO)Nc1nccc(-c2c(-c3ccc4c(c3)OCCO4)nc3sccn23)n1 [CCIII]
924 nM | CC(C)[C@@H](CO)Nc1nccc(-c2c(-c3ccc(C(F)(F)F)cc3)nc3sccn23)n1 [CCII]
10100 nM | Cc1csc2nc(-c3ccc(F)cc3)c(-c3ccnc(NC(CO)CO)n3)n12 [CCIV]
971 nM | OCC(CO)Nc1nccc(-c2c(-c3cccc(F)c3)nc3sccn23)n1 [CCVIII]
609 nM | OCC(CO)Nc1nccc(-c2c(-c3ccc(F)c(F)c3)nc3sccn23)n1 [CCVI]
3190 nM | Cc1csc2nc(-c3ccc(F)cc3)c(-c3ccnc(N[C@H](CO)C(C)C)n3)n12 [CCV]
2080 nM | Nc1cc(-c2c(-c3ccc(F)cc3)nc3sccn23)nc(NC2CC2)n1 [CCXXIII]
1570 nM | Nc1cc(-c2c(-c3ccc(F)cc3)nc3sccn23)nc(NCC2CC2)n1 [CCXXIV]
1030 nM | CC(C)(CO)CNc1nc(N)cc(-c2c(-c3ccc(F)cc3)nc3sccn23)n1 [CCXXIX]
960 nM | Nc1cc(-c2c(-c3ccc(F)cc3)nc3sccn23)nc(NCCc2ccncc2)n1 [CCXXVIII]
1330 nM | CCCNc1nc(N)cc(-c2c(-c3ccc(F)cc3)nc3sccn23)n1 [CCXXVII]
766 nM | CCOCCCNc1nc(N)cc(-c2c(-c3ccc(F)cc3)nc3sccn23)n1 [CCXXVI]
1050 nM | C[C@H](O)CNc1nc(N)cc(-c2c(-c3ccc(F)cc3)nc3sccn23)n1 [CCXXV]
2570 nM | Nc1cc(-c2c(-c3ccc(F)cc3)nc3sccn23)nc(NC[C@H](O)c2ccccc2)n1 [CCXXX]
558 nM | Cc1ccc(-c2nc3sccn3c2-c2ccnc(NC(CO)CO)n2)cc1 [CCX]
927 nM | O[C@H]1CCN(c2nccc(-c3c(-c4ccc(F)cc4)nc4occn34)n2)C1 [CII]
1420 nM | O[C@@H]1CCN(c2nccc(-c3c(-c4ccc(F)cc4)nc4occn34)n2)C1 [CI]
15.6 nM | c1ccc(-c2nc3sccn3c2-c2ccnc(NCc3ccco3)n2)cc1 [CLIII]
6.14 nM | Fc1ccc(-c2nc3sccn3c2-c2ccnc(NCc3cccs3)n2)cc1 [CLII]
1000 nM | CCOC(=O)Cc1csc2nc(-c3ccc(F)cc3)c(-c3ccnc(SC)n3)n12 [CLIV]
91.1 nM | c1ccc(-c2nc3sccn3c2-c2ccnc(NCc3ccccn3)n2)cc1 [CLIX]
21.8 nM | OCCCNc1nccc(-c2c(-c3ccccc3)nc3sccn23)n1 [CLVIII]
5.29 nM | c1ccc(-c2nc3sccn3c2-c2ccnc(NC3CC3)n2)cc1 [CLVII]
58.6 nM | CC(C)(C)OC(=O)CNc1nccc(-c2c(-c3ccc(F)cc3)nc3sccn23)n1 [CLVI]

IC50 | SMILES
1000 nM | CCOC(=O)Cc1csc2nc(-c3ccc(F)cc3)c(-c3ccnc(NCc4ccco4)n3)n12 [CLXIII]
1000 nM | CCOC(=O)Cc1csc2nc(-c3ccc(F)cc3)c(-c3ccnc(NCC(C)C)n3)n12 [CLXII]
1000 nM | CCOC(=O)Cc1csc2nc(-c3ccc(F)cc3)c(-c3ccnc(N4CCCCC4)n3)n12 [CLXIV]
267 nM | COC(=O)C(Cc1ccccc1)Nc1nccc(-c2c(-c3ccc(F)cc3)nc3sccn23)n1 (centres unmarked) [CLXIX]
1000 nM | CCOC(=O)Cc1csc2nc(-c3ccc(F)cc3)c(-c3ccnc(NCC4CCCCC4)n3)n12 [CLXI]
1460 nM | c1ccc(-c2nc3sccn3c2-c2ccncn2)cc1 [CLXVIII]
1000 nM | CC(C)CNC(=O)Cc1csc2nc(-c3ccc(F)cc3)c(-c3ccnc(NCC(C)C)n3)n12 [CLXVII]
1000 nM | O=C(Cc1csc2nc(-c3ccc(F)cc3)c(-c3ccnc(NCC4CCCCC4)n3)n12)NCC1CCCCC1 [CLXVI]
1000 nM | O=C(Cc1csc2nc(-c3ccc(F)cc3)c(-c3ccnc(NCc4ccccc4)n3)n12)NCc1ccccc1 [CLXV]
81.4 nM | CC(C)[C@@H](Nc1nccc(-c2c(-c3ccc(F)cc3)nc3sccn23)n1)C(=O)OC(C)(C)C [CLXXIII]
671 nM | CC(C)[C@@H](Nc1nccc(-c2c(-c3ccc(F)cc3)nc3sccn23)n1)C(=O)O [CLXXIV]
192 nM | CC(CO)(CO)Nc1nccc(-c2c(-c3ccc(F)cc3)nc3sccn23)n1 [CLXXIX]
1000 nM | CC(O)CN(CC(C)O)c1nccc(-c2c(-c3ccc(F)cc3)nc3sccn23)n1 (centres unmarked) [CLXXVIII]
793 nM | OCCN(CCO)c1nccc(-c2c(-c3ccc(F)cc3)nc3sccn23)n1 [CLXXVII]
1000 nM | CN(CCO)c1nccc(-c2c(-c3ccc(F)cc3)nc3sccn23)n1 [CLXXVI]
3390 nM | COc1cccc(-c2nc3sccn3c2-c2ccnc(SC)n2)c1 [CLXXV]
1000 nM | OCCN1CCN(c2nccc(-c3c(-c4ccc(F)cc4)nc4sccn34)n2)CC1 [CLXXXIII]
347 nM | CC(C)C[C@H](CO)Nc1nccc(-c2c(-c3ccc(F)cc3)nc3sccn23)n1 [CLXXXII]
594 nM | OC1CCN(c2nccc(-c3c(-c4ccc(F)cc4)nc4sccn34)n2)CC1 [CLXXXIV]
1850 nM | Cc1cn2c(-c3ccnc(S(C)(=O)=O)n3)c(-c3ccc(F)cc3)nc2s1 [CLXXXVII]
87.1 nM | OCC(CO)Nc1nccc(-c2c(-c3ccc(F)cc3)nc3sccn23)n1 [CLXXXV]
13.4 nM | CC[C@H](C)C(Nc1nccc(-c2c(-c3ccc(F)cc3)nc3sccn23)n1)C(=O)OC (some centres unmarked) [CLXX]
1000 nM | CCOC(=O)Cc1csc2nc(-c3ccc(F)cc3)c(-c3ccnc(NCc4ccccc4)n3)n12 [CLX]
213 nM | OCCN(Cc1ccccc1)c1nccc(-c2c(-c3ccc(F)cc3)nc3sccn23)n1 [CXCII]

IC50 | SMILES
565 nM | OC[C@@H](Nc1nccc(-c2c(-c3ccc(F)cc3)nc3sccn23)n1)[C@H](O)c1ccccc1 [CXCIV]
428 nM | COc1cccc(-c2nc3sccn3c2-c2ccnc(NCCOCCO)n2)c1 [CXCIX]
741 nM | CSc1nccc(-c2c(-c3ccc(F)cc3)nc3sc(C)cn23)n1 [CXCI]
649 nM | COc1cccc(-c2nc3sccn3c2-c2ccnc(NCC(O)CO)n2)c1 (centres unmarked) [CXCVIII]
61.2 nM | COc1cccc(-c2nc3sccn3c2-c2ccnc(NCC(C)O)n2)c1 (centres unmarked) [CXCVII]
819 nM | COc1cccc(-c2nc3sccn3c2-c2ccnc(N[C@H](CO)[C@H](O)c3ccccc3)n2)c1 [CXCVI]
44.7 nM | COc1cccc(-c2nc3sccn3c2-c2ccnc(NC(C)CO)n2)c1 (centres unmarked) [CXCV]
3040 nM | COc1ccc(-c2nc3sccn3c2-c2ccnc(SC)n2)cc1 [CXC]
8.22 nM | Fc1ccc(-c2nc3sccn3c2-c2ccnc(NCc3ccco3)n2)cc1 [CXLIII]
1.97 nM | CC(C)CNc1nccc(-c2c(-c3ccc(F)cc3)nc3sccn23)n1 [CXLII]
4.92 nM | Fc1ccc(-c2nc3sccn3c2-c2ccnc(NCc3ccccc3)n2)cc1 [CXLI]
129 nM | Fc1ccc(-c2nc3sccn3c2-c2ccnc(N3CCOCC3)n2)cc1 [CXLVI]
65.5 nM | COc1ccc(CNc2nccc(-c3c(-c4ccc(F)cc4)nc4sccn34)n2)cc1 [CXLV]
97.4 nM | Nc1nccc(-c2c(-c3ccc(F)cc3)nc3occn23)n1 [CXXIX]
81.4 nM | COc1ccc(CNc2nccc(-c3c(-c4ccccc4)nc4sccn34)n2)cc1 [CXXXIII]
113 nM | c1ccc(-c2nc3sccn3c2-c2ccnc(N3CCOCC3)n2)cc1 [CXXXIV]
635 nM | CSc1nccc(-c2c(-c3ccc(F)cc3)nc3sccn23)n1 [CXXXIX, 6-(4-fluorophenyl)-5-(2-methylsulfanyl-pyrimidin-4-yl)-imidazo[2,1-b]thiazole]
28.5 nM | c1ccc(CNc2nccc(-c3c(-c4ccccc4)nc4sccn34)n2)cc1 [CXXXI]
10.2 nM | c1ccc(-c2nc3sccn3c2-c2ccnc(NCc3cccs3)n2)cc1 [CXXXVIII]
65.7 nM | c1ccc(-c2nc3sccn3c2-c2ccnc(NCC3CCCCC3)n2)cc1 [CXXXVII]
150 nM | Fc1ccc(CNc2nccc(-c3c(-c4ccccc4)nc4sccn34)n2)cc1 [CXXXVI]
396 nM | c1ccc(-c2nc3sccn3c2-c2ccnc(N3CCCCC3)n2)cc1 [CXXXV]
228 nM | CSc1nccc(-c2c(-c3ccccc3)nc3sccn23)n1 [CXXX]
